± gives the standard deviation of the averaged measurements.
Test system: HepaRG
Test: LDH release cytotoxicity, % of total lysis control; higher = more cytotoxic
Settings: 48 h
In short: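 On collagen I-coated 96-well plates, single-lot HepaRG cells were exposed for 48 h, in duplicate, to eight-point half-log series of test chemicals beginning at 100 µM. The exposure medium was serum-free induction medium with 0.5% DMSO, and total lysis wells got 0.1% Triton X. Resorufin fluorescence from the CytoTox-ONE reaction, read on a Tecan Safire, reported LDH in 50 µL of spent medium. Percent cytotoxicity came from normalization to on-plate vehicle and total lysis controls, averaged over the duplicates.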

Cc1oc(-c2ccccc2)nc1CCOc1ccc(CC(Nc2ccccc2C(=O)c2ccccc2)C(=O)O)cc1 (configuration not stated) [Farglitazar]
LDH release cytotoxicity (0.03162 µM): -1.27 ± 0.032%
LDH release cytotoxicity (0.1 µM): -1.73 ± 1.1%
LDH release cytotoxicity (0.3162278 µM): -0.126 ± 0.81%
LDH release cytotoxicity (1 µM): -1.05 ± 1.1%
LDH release cytotoxicity (3.16228 µM): -2.03 ± 0.091%
LDH release cytotoxicity (10 µM): -1.81 ± 0.25%
LDH release cytotoxicity (31.6228 µM): 67.1 ± 9.7%
LDH release cytotoxicity (100 µM): 78.6 ± 1.2%

CC(C)OC(=O)C(C)(C)Oc1ccc(C(=O)c2ccc(Cl)cc2)cc1 [Fenofibrate]
LDH release cytotoxicity (0.03162 µM): -0.938 ± 0.65%
LDH release cytotoxicity (0.1 µM): -0.368 ± 1.6%
LDH release cytotoxicity (0.3162278 µM): -0.7726 ± 0.0031%
LDH release cytotoxicity (1 µM): -1.53 ± 0.59%
LDH release cytotoxicity (3.16228 µM): -0.41 ± 0.067%
LDH release cytotoxicity (10 µM): -0.735 ± 0.21%
LDH release cytotoxicity (31.6228 µM): -0.291 ± 0.23%
LDH release cytotoxicity (100 µM): 0.118 ± 0.2%

C=CC(=O)OCCCCCC(C)C [Isooctyl acrylate]
LDH release cytotoxicity (0.03162 µM): -1 ± 0.16%
LDH release cytotoxicity (0.1 µM): -1.54 ± 0.15%
LDH release cytotoxicity (0.3162278 µM): -2.08 ± 0.28%
LDH release cytotoxicity (1 µM): -1.07 ± 0.63%
LDH release cytotoxicity (3.16228 µM): -1.61 ± 0.64%
LDH release cytotoxicity (10 µM): -1.55 ± 0.55%
LDH release cytotoxicity (31.6228 µM): -0.382 ± 0.33%
LDH release cytotoxicity (100 µM): 0.567 ± 1.4%

CCCCCCCCOc1ccc(C(=O)c2ccccc2)c(O)c1 [Octabenzone]
LDH release cytotoxicity (0.03162 µM): -0.784 ± 0.38%
LDH release cytotoxicity (0.1 µM): -1.09 ± 0.34%
LDH release cytotoxicity (0.3162278 µM): -0.164 ± 0.29%
LDH release cytotoxicity (1 µM): 0.7228 ± 0.0064%
LDH release cytotoxicity (3.16228 µM): 0.706 ± 0.87%
LDH release cytotoxicity (10 µM): 0.678 ± 2.1%
LDH release cytotoxicity (31.6228 µM): 1.22 ± 0.62%
LDH release cytotoxicity (100 µM): 1.8 ± 0.62%

O=C(O)CCCCC(=O)O [Hexanedioic acid]
LDH release cytotoxicity (0.03162 µM): -0.567 ± 0.22%
LDH release cytotoxicity (0.1 µM): -0.838 ± 0.079%
LDH release cytotoxicity (0.3162278 µM): -1.43 ± 1.4%
LDH release cytotoxicity (1 µM): -1.17 ± 0.34%
LDH release cytotoxicity (3.16228 µM): -1.55 ± 0.028%
LDH release cytotoxicity (10 µM): -0.895 ± 0.82%
LDH release cytotoxicity (31.6228 µM): -1.25 ± 0.29%
LDH release cytotoxicity (100 µM): 0.446 ± 0.27%

CCOC(=O)C(O)(c1ccc(Cl)cc1)c1ccc(Cl)cc1 [Chlorobenzilate]
LDH release cytotoxicity (0.03162 µM): -0.592 ± 1.7%
LDH release cytotoxicity (0.1 µM): -1.28 ± 2.1%
LDH release cytotoxicity (0.3162278 µM): -1.55 ± 0.35%
LDH release cytotoxicity (1 µM): -2.17 ± 0.12%
LDH release cytotoxicity (3.16228 µM): -2.04 ± 1.4%
LDH release cytotoxicity (10 µM): -1.17 ± 0.5%
LDH release cytotoxicity (31.6228 µM): -0.669 ± 0.95%
LDH release cytotoxicity (100 µM): 3.46 ± 1.6%

N#Cc1c(Cl)c(Cl)c(Cl)c(C#N)c1Cl [Chlorothalonil]
LDH release cytotoxicity (0.031623 µM): -0.0289 ± 0.73%
LDH release cytotoxicity (0.1 µM): -1.96 ± 3.7%
LDH release cytotoxicity (0.316228 µM): -3.42 ± 0.39%
LDH release cytotoxicity (1 µM): -2.72 ± 1.5%
LDH release cytotoxicity (3.16228 µM): -0.469 ± 1.9%
LDH release cytotoxicity (10 µM): 4.78 ± 0.7%
LDH release cytotoxicity (31.6228 µM): 20.5 ± 1.1%
LDH release cytotoxicity (100 µM): 48.7 ± 34%

O=C1c2ccccc2C(=O)N1CCc1noc(-c2ccc(CN3CCCCCC3)s2)n1
LDH release cytotoxicity (0.026721 µM): 1.83 ± 0.47%
LDH release cytotoxicity (0.0845 µM): -0.403 ± 0.25%
LDH release cytotoxicity (0.267212 µM): -0.399 ± 0.032%
LDH release cytotoxicity (0.845 µM): -0.205 ± 0.38%
LDH release cytotoxicity (2.67212 µM): -7.752 ± 0.013%
LDH release cytotoxicity (8.45 µM): 7.6 ± 1.2%
LDH release cytotoxicity (26.7213 µM): 1.47 ± 2.3%
LDH release cytotoxicity (84.5 µM): -1.5 ± 0.19%

CC(O)CN(CCN(CC(C)O)CC(C)O)CC(C)O (configuration not stated) [1,1',1'',1'''-(Ethanediylnitrilo)tetrakis(2-propanol)]
LDH release cytotoxicity (0.03162 µM): -1.14 ± 0.41%
LDH release cytotoxicity (0.1 µM): -1.86 ± 1.1%
LDH release cytotoxicity (0.3162278 µM): -1.7 ± 0.17%
LDH release cytotoxicity (1 µM): -2.22 ± 0.98%
LDH release cytotoxicity (3.16228 µM): -2.41 ± 0.2%
LDH release cytotoxicity (10 µM): -1.35 ± 1.4%
LDH release cytotoxicity (31.6228 µM): 5.57 ± 1.1%
LDH release cytotoxicity (100 µM): 18.7 ± 1.4%

CCOC(N)=O [Urethane]
LDH release cytotoxicity (0.03162 µM): -1.53 ± 1%
LDH release cytotoxicity (0.1 µM): -1.5 ± 0.84%
LDH release cytotoxicity (0.3162278 µM): -1.42 ± 0.68%
LDH release cytotoxicity (1 µM): -1.29 ± 0.5%
LDH release cytotoxicity (3.16228 µM): -1.03 ± 0.12%
LDH release cytotoxicity (10 µM): -1.2 ± 0.054%
LDH release cytotoxicity (31.6228 µM): -0.4372 ± 0.0016%
LDH release cytotoxicity (100 µM): 0.365 ± 1.2%

O=C(O)c1nc(Cl)ccc1Cl [Clopyralid]
LDH release cytotoxicity (0.03162 µM): -0.598 ± 0.35%
LDH release cytotoxicity (0.1 µM): -1.08 ± 0.48%
LDH release cytotoxicity (0.3162278 µM): -0.606 ± 0.19%
LDH release cytotoxicity (1 µM): -1.03 ± 0.57%
LDH release cytotoxicity (3.16228 µM): -0.337 ± 0.046%
LDH release cytotoxicity (10 µM): 0.0712 ± 0.39%
LDH release cytotoxicity (31.6228 µM): 0.653 ± 1.2%
LDH release cytotoxicity (100 µM): 2.21 ± 0.38%

O=NO [Sodium nitrite]
LDH release cytotoxicity (0.03162 µM): -3.61 ± 3.5%
LDH release cytotoxicity (0.1 µM): 0.52 ± 1.1%
LDH release cytotoxicity (0.3162278 µM): -0.867 ± 0.14%
LDH release cytotoxicity (1 µM): -2.02 ± 0.5%
LDH release cytotoxicity (3.16228 µM): -1.06 ± 0.48%
LDH release cytotoxicity (10 µM): -0.549 ± 0.34%
LDH release cytotoxicity (31.6228 µM): -1.15 ± 0.46%
LDH release cytotoxicity (100 µM): 0.684 ± 0.51%

CC1=C(C(=O)Nc2ccccc2)SCCO1 [Carboxin]
LDH release cytotoxicity (0.03162 µM): -0.0118 ± 0.68%
LDH release cytotoxicity (0.1 µM): -0.836 ± 2.2%
LDH release cytotoxicity (0.3162278 µM): -1.79 ± 0.24%
LDH release cytotoxicity (1 µM): -0.232 ± 1.3%
LDH release cytotoxicity (3.16228 µM): -1.1 ± 0.12%
LDH release cytotoxicity (10 µM): -0.0461 ± 0.17%
LDH release cytotoxicity (31.6228 µM): 3.07 ± 1.5%
LDH release cytotoxicity (100 µM): 8.14 ± 2.8%

Clc1ccccc1-c1nnc(-c2ccccc2Cl)nn1 [Clofentezine]
LDH release cytotoxicity (0.03162 µM): -1.43 ± 0.094%
LDH release cytotoxicity (0.1 µM): -0.835 ± 0.41%
LDH release cytotoxicity (0.3162278 µM): -0.246 ± 0.27%
LDH release cytotoxicity (1 µM): -1.9 ± 0.72%
LDH release cytotoxicity (3.16228 µM): -0.967 ± 0.31%
LDH release cytotoxicity (10 µM): -1.22 ± 0.43%
LDH release cytotoxicity (31.6228 µM): -0.912 ± 0.23%
LDH release cytotoxicity (100 µM): 0.757 ± 0.29%

CC(Oc1cccc(Cl)c1)C(=O)O (configuration not stated) [Cloprop]
LDH release cytotoxicity (0.03162 µM): -1.06 ± 1.4%
LDH release cytotoxicity (0.1 µM): -0.561 ± 0.06%
LDH release cytotoxicity (0.3162278 µM): -0.691 ± 0.98%
LDH release cytotoxicity (1 µM): -0.434 ± 0.14%
LDH release cytotoxicity (3.16228 µM): -0.762 ± 0.08%
LDH release cytotoxicity (10 µM): -0.167 ± 0.17%
LDH release cytotoxicity (31.6228 µM): -0.608 ± 0.19%
LDH release cytotoxicity (100 µM): 0.547 ± 0.3%

O=S(=O)(O)C(F)(F)C(F)(F)C(F)(F)C(F)(F)F [Potassium perfluorobutanesulfonate]
LDH release cytotoxicity (0.0332039 µM): -0.897 ± 0.78%
LDH release cytotoxicity (0.105 µM): -1.25 ± 1.1%
LDH release cytotoxicity (0.332039 µM): -2.33 ± 0.91%
LDH release cytotoxicity (1.05 µM): -2.02 ± 0.33%
LDH release cytotoxicity (3.32039 µM): -1.34 ± 0.56%
LDH release cytotoxicity (10.5 µM): -1.05 ± 0.085%
LDH release cytotoxicity (33.2039 µM): -1.53 ± 0.46%
LDH release cytotoxicity (105 µM): 0.458 ± 0.54%

CC12CC1(C)C(=O)N(c1cc(Cl)cc(Cl)c1)C2=O (configuration not stated) [Procymidone]
LDH release cytotoxicity (0.03162 µM): -1.37 ± 0.98%
LDH release cytotoxicity (0.1 µM): -1.85 ± 0.2%
LDH release cytotoxicity (0.3162278 µM): -2.08 ± 1.2%
LDH release cytotoxicity (1 µM): -2.56 ± 0.83%
LDH release cytotoxicity (3.16228 µM): -2.762 ± 0.024%
LDH release cytotoxicity (10 µM): -1.32 ± 0.37%
LDH release cytotoxicity (31.6228 µM): -2.43 ± 0.027%
LDH release cytotoxicity (100 µM): -1.16 ± 1.2%

Cc1cc(F)ccc1-c1cc(N2CCC(O)C2CO)ncc1N(C)C(=O)C(C)(C)c1cc(C(F)(F)F)cc(C(F)(F)F)c1 (configuration not stated)
LDH release cytotoxicity (0.02577 µM): -0.371 ± 0.69%
LDH release cytotoxicity (0.0815 µM): -1.04 ± 0.056%
LDH release cytotoxicity (0.2577256 µM): -1.11 ± 0.12%
LDH release cytotoxicity (0.815 µM): -0.898 ± 0.74%
LDH release cytotoxicity (2.57726 µM): -1.2 ± 0.34%
LDH release cytotoxicity (8.15 µM): -1.08 ± 0.097%
LDH release cytotoxicity (25.7726 µM): 12.91 ± 0.041%
LDH release cytotoxicity (81.5 µM): 86.4 ± 2.3%

CC1(C)C(=O)NC(=O)N1CO [1-(Hydroxymethyl)-5,5-dimethylhydantoin]
LDH release cytotoxicity (0.03162 µM): -1.56 ± 1.1%
LDH release cytotoxicity (0.1 µM): -1.1 ± 1.7%
LDH release cytotoxicity (0.3162278 µM): -1.77 ± 0.95%
LDH release cytotoxicity (1 µM): -1.77 ± 0.48%
LDH release cytotoxicity (3.16228 µM): -1.55 ± 0.76%
LDH release cytotoxicity (10 µM): -1.08 ± 0.36%
LDH release cytotoxicity (31.6228 µM): -0.999 ± 0.29%
LDH release cytotoxicity (100 µM): 0.312 ± 0.47%
